Like-named read-outs stand apart in the source and are kept apart here.
Key:
[1] = target: T1, PDE4B (Homo sapiens, UniProt Q07343); test: PDE4B enzyme activity assay (PDE-Glo Phosphodiesterase Assay Kit); assay type: biochemical; conditions: for IC50 (PDE4D)/IC50 (PDE4B): selectivity ratio
T1 construct: purchased Enzo Life Sciences BML-SE522-0020
Method: (§1) For the previously synthesized compounds, the inhibitory activity of the compounds against PDE4B and against PDE4D was tested by using PDE-Glo Phosphodiesterase Assay Kit (promega, V1361). In short, in accordance with the instructions of the kit, a concentrated stock solution (10 mM) the compound to be tested was first prepared with DMSO solvent, and the concentrated stock solution was then diluted into 10× working solutions with a Reaction buffer provided in the kit. With the Reaction buffer, on ice, PDE4B enzyme (Enzo Life Sciences, BML-SE522-0020) was diluted to a concentration of 1 ng/μl to obtain a PDE4B enzyme working solution, and PDE4D enzyme (Enzo Life Sciences, BML-SE523-0020) was diluted to a concentration of 4 ng/μl to obtain a PDE4D enzyme working solution. 1.5 μl of the PDE4B working solution (or PDE4D working solution) and 1 μl of the compound working solution were added to wells of 384-well plate (Corning, CLS3707), and incubated with shaking at room temperature for 5 min, followed by adding 2.5 μl of cAMP (in Reaction buffer, 2 μM) per well, incubating with shaking at room temperature for 20 min. 2.5 μl/well of 1× Termination Buffer, and then 2.5 μl/well of 1× Detection Buffer were added, and further incubated with shaking at room temperature for 20 min. 10 μl/well of 1× Kinase-Glo was added, and the plate was incubated with shaking at room temperature for 10 min, and bioluminescence was measured with PheraStar instrument. The experimental results were plotted with GraphPad Prism software, and fitted to calculate IC50 of each compound.

[2] = target: T2, PDE4D (Homo sapiens, UniProt Q08499); test: PDE4D enzyme activity assay (PDE-Glo Phosphodiesterase Assay Kit); assay type: biochemical
T2 construct: purchased Enzo Life Sciences BML-SE523-0020
Method: as §1

[3] = test system: LPS-induced secretion of TNFα in human PBMCs; test: LPS-induced secretion of TNFα in human PBMCs; assay type: cell-based; conditions: Homo sapiens, PBMC, 24 h, LPS 10 ng/ml
Method: Extraction process of peripheral blood mononuclear cells (PBMCs): one unit of human peripheral blood concentrate (concentrated from 200 cc peripheral blood) was sucked and added with 0.9% saline until a total volume reached 120 ml, and mixed homogenously. 15 ml Lymphoprep™ was added into 50 ml centrifuge tube, and then 30 ml of diluted blood concentrate was carefully and slowly added thereto, allowing the diluted blood to be stacked on the layered solution and preventing the diluted blood from being mixed into the separated solutions or breaking the surface of the separated solution, wherein a ratio of Lymphoprep™ to the diluted blood was 1:2. The centrifuge tubes were balanced and placed in a horizontal centrifuge (eppendorf, 5810R), and centrifuged at 800 g and 20° C. for 20 min. The centrifuge tubes were carefully taken out. PBMCs were absorbed by directly inserting the Pasteur pipette deep into the buffy coat. The obtained PBMCs were gently pipetted with 3 times the volume of 0.9% normal saline or PBS (without calcium or magnesium ions) to mix homogenously. After that, the cells were centrifuged at 250 g and 20° C. for 10 min, the supernatant was removed to remove the platelets remaining in the cell suspension. The obtained cell pellet was resuspended in 20 ml of PBS, and counted using trypan blue.
Compound screening by using PBMCs: the PBMC suspension obtained above was centrifuged to remove PBS, then resuspended in complete medium (RPMI1640+10% FBS+1% P/S) and counted. 100 μL/well of the cells was seeded at 5×10^4/well. Each of the compounds to be screened was prepared as 4 times the final concentration, which was added to the cells at 50 μL/well. The compound was pre-incubated for 30 min in advance of being added to the cells. Meanwhile, control wells to which the compound was not added were provided. A final stimulation concentration of LPS was 10 ng/ml, and LPS was formulated as 4 times the final stimulation concentration, and added to the cells at 50 μL/well. Meanwhile, control wells, i.e., wells without LPS were provided. The cells were incubated for 24 h, and 10% of the supernatant was collected for detection. The obtained supernatant was detected using Invitrogen's Human TNF-α kit (REF: 88-7346-88).

[4] = test system: LPS-stimulated TNF-α release; test: LPS-stimulated TNF-α release in mice; assay type: in vivo, Balb/c mice; conditions: Mus musculus, oral 50 mg/kg (positive control 100 mg/kg), 1 mg/kg LPS i.p.
Method: 18 Balb/c mice (6 to 8 weeks) were randomly assigned to a blank group, a model group, and an administration group, 6 mice in each group. A vehicle (blank group, model group) or 50 mg/kg compound (administration group, where the dose for the positive control group was 100 mg/kg) was orally administrated. 30 min after the oral administration, PBS (blank group) or 1 mg/kg LPS (model group and administration group) was injected intraperitoneally. 90 min or 120 min after the intraperitoneal injection, blood was collected from the hearts of the mice, and still stood at 2-8° C. for 4 hours, and centrifuged at 5000 rpm for 10 min to collect the serum. The serum was stored at −80° C. for testing.
The serum TNF-α level was tested using a mouse TNF-α detection kit (Mouse TNFa ELISA kit: Biolegend, Cat: 430904). The inhibitory activity of the compounds against the TNF-α release was calculated based on the serum TNF-α level.
Inhibitory activity of compound %={1−(TNFα concentration of administration group−TNFα concentration of blank group)/(TNFα concentration of model group−TNFα concentration of blank group)}×100%.

[5] = 2 h, blood 120 min after LPS, read-out: Inhibition rate (%) of LPS-stimulated TNF-α release, 120 min
[6] = 1.5 h, blood 90 min after LPS, read-out: Inhibition rate (%) of LPS-stimulated TNF-α release, 90 min

T1 sequence (Q07343 whole entry): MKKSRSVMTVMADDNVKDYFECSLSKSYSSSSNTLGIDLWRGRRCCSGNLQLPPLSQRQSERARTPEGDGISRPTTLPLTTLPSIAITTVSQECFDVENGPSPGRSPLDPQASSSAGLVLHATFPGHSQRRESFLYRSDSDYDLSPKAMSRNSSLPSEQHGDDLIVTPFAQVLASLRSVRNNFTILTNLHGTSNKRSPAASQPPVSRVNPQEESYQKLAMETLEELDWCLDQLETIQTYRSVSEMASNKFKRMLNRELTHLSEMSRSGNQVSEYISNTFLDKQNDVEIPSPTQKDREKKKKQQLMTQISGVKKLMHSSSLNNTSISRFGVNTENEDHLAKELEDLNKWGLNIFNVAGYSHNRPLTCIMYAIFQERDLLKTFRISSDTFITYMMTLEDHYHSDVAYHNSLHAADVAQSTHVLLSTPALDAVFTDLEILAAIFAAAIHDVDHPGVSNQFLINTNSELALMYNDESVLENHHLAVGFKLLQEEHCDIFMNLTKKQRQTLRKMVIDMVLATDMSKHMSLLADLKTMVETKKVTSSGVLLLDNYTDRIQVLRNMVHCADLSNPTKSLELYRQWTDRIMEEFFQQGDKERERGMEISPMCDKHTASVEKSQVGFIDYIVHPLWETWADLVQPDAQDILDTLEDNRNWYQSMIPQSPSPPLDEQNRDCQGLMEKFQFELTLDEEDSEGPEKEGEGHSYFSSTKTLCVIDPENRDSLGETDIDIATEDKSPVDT
T2 sequence (Q08499 whole entry): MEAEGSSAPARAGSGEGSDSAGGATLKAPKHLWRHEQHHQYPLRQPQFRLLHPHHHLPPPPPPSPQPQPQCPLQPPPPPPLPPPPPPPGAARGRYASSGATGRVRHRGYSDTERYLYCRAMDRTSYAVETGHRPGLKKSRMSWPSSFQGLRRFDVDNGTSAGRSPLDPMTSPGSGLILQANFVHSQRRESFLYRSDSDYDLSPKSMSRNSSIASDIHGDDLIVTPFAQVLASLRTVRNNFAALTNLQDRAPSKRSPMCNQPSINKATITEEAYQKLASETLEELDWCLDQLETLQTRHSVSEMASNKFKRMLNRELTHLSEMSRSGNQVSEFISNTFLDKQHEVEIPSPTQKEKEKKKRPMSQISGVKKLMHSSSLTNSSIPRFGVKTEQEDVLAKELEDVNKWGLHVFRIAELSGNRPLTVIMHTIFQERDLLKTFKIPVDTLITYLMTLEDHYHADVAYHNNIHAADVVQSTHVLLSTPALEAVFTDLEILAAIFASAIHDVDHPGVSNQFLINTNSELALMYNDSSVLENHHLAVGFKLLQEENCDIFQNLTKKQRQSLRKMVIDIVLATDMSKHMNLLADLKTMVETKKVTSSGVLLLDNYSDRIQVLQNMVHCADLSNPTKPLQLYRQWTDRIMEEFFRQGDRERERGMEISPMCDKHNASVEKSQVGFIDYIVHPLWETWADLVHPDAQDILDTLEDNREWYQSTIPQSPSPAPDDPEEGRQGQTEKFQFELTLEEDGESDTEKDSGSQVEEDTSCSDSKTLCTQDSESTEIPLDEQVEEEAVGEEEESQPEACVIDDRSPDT

| IC50 [1] | IC50 (PDE4D)/IC50 (PDE4B) [1] | IC50 [2] | Structure (SMILES) | IC50 [3] | inhibition in vivo at 50 mg/kg [4, 5] | inhibition in vivo at 50 mg/kg [4, 6] |
| --- | --- | --- | --- | --- | --- | --- |
| 1.37 nM | 0.98 | 1.34 nM | COc1ccc([C@@H]2CN(C(=O)[C@@H](O)CO)C[C@@]2(C)[C@@H](C)O)cc1OC1CN(c2ncc(C)cc2C#N)C1 [Compound 006, 2-(3-(5-((3S,4S)-1-((S)-2,3-dihydroxypropanoyl)-4-((R)-1-hydroxyethyl)-4-methylpyrrolidin-3-yl)-2-methoxyphenoxy)azetidin-1-yl)-5-methylnicotinonitrile] | 2.52 nM | – | – |
| 0.78 nM | 5.99 | 4.67 nM | COc1ccc([C@@H]2CN(C(=O)[C@@H](O)CO)C[C@@]2(C)[C@@H](C)O)cc1OC1CN(c2ncc(Cl)cc2F)C1 [Compound 009, (S)-1-((3S,4S)-4-(3-((1-(5-chloro-3-fluoropyridin-2-yl)azetidin-3-yl)oxy)-4-methoxyphenyl)-3-((R)-1-hydroxyethyl)-3-methylpyrrolidin-1-yl)-2,3-dihydroxypropan-1-one] | 7.57 nM | 47.6% | – |
| 2.09 nM | 0.27 | 0.56 nM | COc1ccc([C@@H]2CN(C(=O)[C@@H](O)CO)C[C@@]2(C)[C@@H](C)O)cc1OC1CN(c2cc(C)c(C#N)cn2)C1 [Compound 012, 6-(3-(5-((3S,4S)-1-((S)-2,3-dihydroxypropanoyl)-4-((R)-1-hydroxyethyl)-4-methylpyrrolidin-3-yl)-2-methoxyphenoxy)azetidin-1-yl)-4-methylnicotinonitrile] | 2.52 nM | – | – |
| 6.65 nM | 0.91 | 6.02 nM | COc1ccc([C@@H]2CN(C(=O)[C@@H](O)CO)C[C@@]2(C)[C@@H](C)O)cc1OC1CN(c2ncc(F)cc2Cl)C1 [Compound 014, (S)-1-((3S,4S)-4-(3-((1-(3-chloro-5-fluoropyridin-2-yl)azetidin-3-yl)oxy)-4-methoxyphenyl)-3-((R)-1-hydroxyethyl)-3-methylpyrrolidin-1-yl)-2,3-dihydroxypropan-1-one] | 15.1 nM | – | – |
| 0.68 nM | 1.28 | 0.87 nM | COc1ccc(N2CC(Oc3cc([C@@H]4CN(C(=O)[C@@H](O)CO)C[C@@]4(C)[C@@H](C)O)ccc3OC)C2)nc1 [Compound 015, (S)-2,3-dihydroxy-1-((3S,4S)-3-((R)-1-hydroxyethyl)-4-(4-methoxy-3-((1-(5-methoxypyridin-2-yl)azetidin-3-yl)oxy)phenyl)-3-methylpyrrolidin-1-yl)propan-1-one] | 3.34 nM | – | – |
| 4.15 nM | 3.59 | 14.9 nM | COc1ccc([C@@H]2CN(C(=O)[C@@H](O)CO)C[C@@]2(C)[C@@H](C)O)cc1OC1CN(c2ncc(C)cc2C)C1 [Compound 021, (S)-1-((3S,4S)-4-(3-((1-(3,5-dimethylpyridin-2-yl)azetidin-3-yl)oxy)-4-methoxyphenyl)-3-((R)-1-hydroxyethyl)-3-methylpyrrolidin-1-yl)-2,3-dihydroxypropan-1-one] | 14.1 nM | – | – |
| 0.88 nM | 2.45 | 2.16 nM | COc1ccc([C@@H]2CN(C(=O)[C@@H](O)CO)C[C@@]2(C)[C@@H](C)O)cc1OC1CN(c2cc(C)c(F)cn2)C1 [Compound 025, (S)-1-((3S,4S)-4-(3-((1-(5-fluoro-4-methylpyridin-2-yl)azetidin-3-yl)oxy)-4-methoxyphenyl)-3-((R)-1-hydroxyethyl)-3-methylpyrrolidin-1-yl)-2,3-dihydroxypropan-1-one] | 3.26 nM | – | – |
| 2.22 nM | 1.39 | 3.08 nM | COc1ccc([C@@H]2CN(C(=O)[C@@H](O)CO)C[C@@]2(C)[C@@H](C)O)cc1OC1CN(c2ccc(OC(C)C)cn2)C1 [Compound 028, (S)-2,3-dihydroxy-1-((3S,4S)-3-((R)-1-hydroxyethyl)-4-(3-((1-(5-isopropoxypyridin-2-yl)azetidin-3-yl)oxy)-4-methoxyphenyl)-3-methylpyrrolidin-1-yl)propan-1-one] | 2.94 nM | – | – |
| 0.33 nM | 9.85 | 3.25 nM | COc1ccc([C@@H]2CN(C(=O)[C@@H](O)CO)C[C@@]2(C)[C@@H](C)O)cc1OC1CN(c2ccc(C(C)C)cn2)C1 [Compound 032, (S)-2,3-dihydroxy-1-((3S,4S)-3-((R)-1-hydroxyethyl)-4-(3-((1-(5-isopropylpyridin-2-yl)azetidin-3-yl)oxy)-4-methoxyphenyl)-3-methylpyrrolidin-1-yl)propan-1-one] | 0.26 nM | 84% | 75.8% |
| 0.22 nM | 12.8 | 2.81 nM | COc1ccc([C@@H]2CN(C(=O)[C@@H](O)CO)C[C@@]2(C)[C@@H](C)O)cc1OC1CN(c2ccc(CC(F)(F)F)cn2)C1 [Compound 033, (S)-2,3-dihydroxy-1-((3S,4S)-3-((R)-1-hydroxyethyl)-4-(4-methoxy-3-((1-(5-(2,2,2-trifluoroethyl)pyridin-2-yl)azetidin-3-yl)oxy)phenyl)-3-methylpyrrolidin-1-yl)propan-1-one] | 0.53 nM | 75.9% | 70.3% |
| 0.25 nM | 11.8 | 2.96 nM | COc1ccc([C@@H]2CN(C(=O)[C@@H](O)CO)C[C@@]2(C)[C@@H](C)O)cc1OC1CN(c2ccc(C3CC3)cn2)C1 [Compound 034, (S)-1-((3S,4S)-4-(3-((1-(5-cyclopropylpyridin-2-yl)azetidin-3-yl)oxy)-4-methoxyphenyl)-3-((R)-1-hydroxyethyl)-3-methylpyrrolidin-1-yl)-2,3-dihydroxypropan-1-one] | 0.32 nM | 85.6% | 76.4% |

— US20220056014A1, “PHENYLPYRROLIDINE COMPOUND AND USE THEREOF” (WUHAN HUMANWELL INNOVATIVE DRUG RESEARCH AND DEVELOPMENT …, priority 2018, published 2022)
